Several values for one entry are separate records, joined by “and”; a condition that tells them apart may be missing. Equal values may be shown once. These antisense oligonucleotides have a phosphorothioate backbone; sugars and methylation of C are not fully specified.
Each sequence was assayed against ERBB2. Conditions: ASO.
Also: test concentration or dose not given here.

Sequence | remaining target (mRNA or protein) (fraction of control)
ACCGCAGAGATGATGGAC | 0.98
ACTCTGGTGGGTGAACCG | 0.86
CACTGGTAACTGCCCTCA | 0.54
CAGGAAGGACAGGCTGGC | 0.94
CAGGGTCAGCGAGTAGGC | 0.89
CCACAAAGACTCCCCAGT | 0.44
CCAGCAGTGAGCGGTAGA | 0.41
CCATCAGTCTCAGAGGGC | 0.3
CCCTTGTAGACTGTGCCA | 0.56
CCGCACATCCTCCAGGTA | 0.64
CCGCCACTCCTGGTAGAT | ≥ 1
CCTGCCTCACTTGGTTGT | 0.64
CCTTTCCAGAGTGGCACC | 0.75
CGAAGGCTGGGCTGAAGG | 0.73
CTGGTAGAGGTGGCGGAG | ≥ 1
CTGGTTCACACTGGCACG | 0.4
GACCACGACCAGCAGAAT | 0.76
GACCATAGCACACTCGGG | 0.57
GCACCACCTGGCAGCCCT | 0.73

Sequence | remaining target (mRNA or protein) (fraction of control)
GCACGAAGCAGAGGTGGG | 0.47
GCACTTCTCACACCGCTG | 0.51
GCAGCCGAGCCAGCCCGA | 0.61
GCAGCGGGAGCCCTTACA | 0.83
GCCAGGGCATAGTTGTCC | 0.81
GCTGGTTGTTCTTGTGGA | 0.73
GGCAGTGTTGGAGGCTGG | 0.57
GGGAACTCAAGCAGGAAG | 0.68
GGGTGGCACGGCAAACAG | 0.81
GGGTGGTATTGTTCAGCG | 0.94
GGTCTCGGGACTGGCAGG | 0.68
GTGGATGTCAGGCAGATG | 0.86
GTGGTTGAAGTGGAGGCA | 0.98
GTTGGGCATCGCTCCGCT | 0.59
TCAGGTTTCACACCGCTG | 0.66
TCGGAGCCAGCCCCTTCG | 0.53
TGATGCCAGCAGAAGTCA | 0.94
TTCTGCTGCCGTCGCTTG | 0.75
TTGACACACTGGGTGGGC | 0.61

These sequences were tested against DUSP9. Conditions: ASO.

Sequence | remaining target (mRNA or protein) (fraction of control)
AAGAACCGCGACAGGTTCTG | 0.83
ACCCTCCATGGGCGATCGGC | 0.43
AGAAGAGGCAGGCTCCGAGC | 0.53
AGACCCTCCATGGGCGATCG | 0.45
AGCCCCAGTGATCCCGTCAA | ≥ 1
AGCGGCCCAGACCCTCCATG | 0.46
AGGAGCAGGAGCCGCGGCCG | 0.7
AGGCCATGGATGTGGGCGGC | 0.57
AGGCCCCAGCCCCGAGAGGC | 0.54
ATTAGGACGGCAGCCCGCGT | ≥ 1
CAGCAGGGTGCCCAGCACCG | ≥ 1
CATGGGCGATCGGCTCCCTA | 0.85
CCACGGGCACTGGACCGGGC | 0.5
CCAGACCCTCCATGGGCGAT | ≥ 1
CCAGGCAGGAGCGCGCGCAC | 0.62
CCCAGGGCCGGGACCTGGGC | 0.98
CCCATGAAGTTGAAGTTGGG | 0.44
CCGGGCACTGCCCAGATAGA | 0.62
CCTCCATGGGCGATCGGCTC | 0.7
CGAAGAAGTTTGGGAGGTTG | 0.3

Sequence | remaining target (mRNA or protein) (fraction of control)
CGAGCACCCCGCAGTTCTGG | 0.94
CGAGCCCTCCTGCCCTCCCC | 0.65
CGAGCGGCCCAGACCCTCCA | ≥ 1
CGGCCCAGACCCTCCATGGG | 0.57
CGTCGCGGCCGGGAAGTTTC | 0.95
CTCATGGAGTCGCGGTCAGC | 0.86
CTCCTGCGAGTGGCGCTCCT | ≥ 1
GACAGAAATGAATGACTGTG | 0.14
GACCCCATCTCCTCCGGCGG | 0.23
GCCACGCTCAGCGCCCCACC | 0.94
GCCCAGACCCTCCATGGGCG | 0.92
GGGCCCCGCAGCAGCAAAAG | 0.35
GGGCGCTCCGCTCTGCTCGG | 0.8
GTGGCACACACCCTTCCTGA | ≥ 1
TCCATGGGCGATCGGCTCCC | 0.74
TGACAACACCAGTGATGGCA | 0.52
TGGAGCTTCTGCATGAGGTA | 0.75
TGGGCAGGGACACCCGTGGG | 0.79
TGGGCGATCGGCTCCCTACA | 0.91

These sequences were tested against DUSP8. Conditions: ASO.

Sequence | remaining target (mRNA or protein) (fraction of control)
AAGCTGTCTGCGGCCAGCAC | 0.71
ACCTGGCTGCGTGCAGCCGG | ≥ 1
AGAGCGGGAGATGCCAGCCA | 0.32
AGAGGTGAGGCAGGATGCGG | ≥ 1
AGCAGATGTTGACGGAGCTG | ≥ 1
AGCTGGCCCAGGAAGTTGAA | 0.95
AGGAGAGGTGCAGGCCGCGC | 0.91
ATCAGATCCTTGTTTAGGAC | ≥ 1
CACCATGCCCTCCTCGAACT | 0.84
CAGGCTTGCCCTCGCAGAGG | ≥ 1
CAGGGCGGCCAGCAGCTTCA | ≥ 1
CCCAGGCCCGCCCCGCAGCA | 0.66
CCCGTCGGGCGACGGCGTGC | ≥ 1
CCGACGGGCTGTCCAGCTTG | 0.94
CCTCAGGCGCGGCGTCCGGG | ≥ 1
CGCCCGCCCGGCCGAAGGGC | 0.86
CTCAGGCCGCCCTCCCTGGC | 0.65
GACTGAAGGTGGCCTCGTAT | 0.69
GAGAGCTTGGCTTTATCGAT | 0.68
GAGCCGGTCCCCAGCCATGG | ≥ 1

Sequence | remaining target (mRNA or protein) (fraction of control)
GAGCTCGAGGACCACCCGCA | 0.89
GCCTGTCCTTCACGAACCTG | ≥ 1
GCTGGACCTCGCTCGCGCTC | ≥ 1
GGAGAAGGAGCGCTTGAGGC | 0.98
GGCAGGCAGGGCTGGGAGAG | ≥ 1
GGCCAGCCGGTCCGCGCGTC | 0.52
GGCTGCTCCGACGGCCCAGG | ≥ 1
GGGCAGCCCGGGCGCCGACA | 0.81
GTAGGTGGTGGCAGCCGTGG | ≥ 1
GTCAGGACACCTCGATGACC | ≥ 1
GTCGAAGCAGCCGTCCAGCT | ≥ 1
TCACCTTGCCCTGCTGCAGC | 0.33
TCGCCTGCTTGCCCAGGGCG | 0.69
TCTGCCGGGCCGCATCGCCG | 0.35
TGCCCATGGTCTTCATGATG | 0.7
TGGTCATAGACCACCACGTC | ≥ 1
TTCTTTGCATTATATATAAT | ≥ 1
TTGCTGGCGTTGAGGACGTA | 0.45
TTTCACAGTAGTTGTCGTTG | ≥ 1

The sequences below were run against SELE. Conditions: ASO.

Sequence | remaining target (mRNA or protein) (fraction of control)
AATCATGACTTCAAGAGTTCT | 0.78 and 0.53
ACAGGATCTCTCAGGTGGGT | 0.2

What follows are sequences tested against PIK3CB. Conditions: ASO.

Sequence | remaining target (mRNA or protein) (fraction of control)
GAGGTTGAACATTGGGTAAT | 0.79
GATCCTTCAAGGAATCAAAT | 0.91
GATGTCTGCCATAGCAGGAG | ≥ 1
GGCATTATGAAACTGAAGCA | ≥ 1
GGCCAAATCTGAAGCAGCGC | ≥ 1
GGGCAAAAGGAAATCCACAG | ≥ 1
GTCAATATCCATAAGGAGGT | ≥ 1
TAAACACGTCCTGGCAGTTT | ≥ 1
TAAGGCAACATCCGAAGATC | 0.96
TACATTTTCTTGATCTTGCA | ≥ 1
TATAAGAAATGGTAGCTTCC | ≥ 1
TATTGAGAAAGTTCTTCATC | 0.86
TGCAACACATAATCATAGGG | ≥ 1
TGCCAATTCATTTACTTTGA | ≥ 1
TGCTATCTGTGAATCCACCG | 0.99
TGTAATATTATGTCTCCAGT | 0.9
TTCACTTTAGTAGTCCAGCT | 0.89
TTCCCGAGGTACCTCCAACT | 0.7

From the OligoGym collection
